# Assay: Chelation test with La^3+ (HPLC chromatograms prior and subsequent to mixing)
# Format: physicochemical
# Conditions: prior vs subsequent to mixing with La^3+
row,chelation of La^3+ indicated by shift in HPLC retention time,Structure (SMILES)
1,rapid chelation of La^3+,"O=C(O)c1cccc(CN2CCOCCOCCN(C(c3ccccc3)c3cccc(C(=O)O)n3)CCOCCOCC2)n1 (centres unmarked) [TOPA-[C7]-phenyl, 6-((16-((6-carboxypyridin-2-yl)(phenyl)methyl)-1,4,10,13-tetraoxa-7,16-diazacyclooctadecan-7-yl)methyl)picolinic acid]"
2,rapid chelation of La^3+ and Ac-225,"CC(C)CCC(c1cccc(C(=O)O)n1)N1CCOCCOCCN(Cc2cccc(C(=O)O)n2)CCOCCOCC1 (centres unmarked) [TOPA-[C7]-isopentyl, 6-((16-(1-(6-carboxypyridin-2-yl)-4-methylpentyl)-1,4,10,13-tetraoxa-7,16-diazacyclooctadecan-7-yl)methyl)picolinic acid]"

# — patent US20250082793A1, “MACROCYCLIC COMPOUNDS AND METHODS OF MAKING THE SAME” (JANSSEN BIOTECH, INC., priority 2021, published 2025)
